Literature values in patent US9265757B2, “Methods of administering antihistamines” (APTAPHARMA INC., priority 2011, dated 2016).

Conditions: second generation antihistamines; from time of administration to symptomatic relief

| SMILES | lag time before onset of action |
| --- | --- |
| COc1ccc(CCN2CCC(Nc3nc4ccccc4n3Cc3ccc(F)cc3)CC2)cc1 [astemizole] | several hours |
| O=C(O)COCCN1CCN(C(c2ccccc2)c2ccc(Cl)cc2)CC1 (stereo not shown) [cetirizine] | several hours |
| CCOC(=O)N1CCC(=C2c3ccc(Cl)cc3CCc3cccnc32)CC1 [loratadine] | several hours |
| CC(C)(C)c1ccc(C(O)CCCN2CCC(C(O)(c3ccccc3)c3ccccc3)CC2)cc1 (stereo not shown) [terfenadine] | several hours |
